Key:
[1] = tested on: Lucilla Cuprina (Australian sheep blowfly); experiment: Activity in vitro against Lucilla cuprina (Australian sheep blowfly), Assay A; conditions: Lucilia cuprina, 96 h; at 32 ppm; eggs on agar-based medium, 4 days at 28° C. and 60% relative humidity; read-out: efficacy (EC80)
Protocol: Activity in vitro against Lucilla Cuprina (Australian sheep blowfly)—Assay A
Freshly laid blowfly eggs are used to seed a suitably formatted microplate containing the test substances to be evaluated for antiparasitic activity. Each compound is tested by serial dilution in order to determine its minimum efficacy dose. The test compounds are embedded in an agar-based nutritive medium allowing the full development of the eggs into 3rd instar larvae. The incubation lasts for 4 days at 28° C. and 60% relative humidity. Egg-hatching and ensuing larval development are also recorded to identify a possible growth-regulating activity.

[2] = tested on: Engorged Female Rhipicephalus microplus (Cattle Tick); experiment: Activity in vitro against engorged female Rhipicephalus microplus (cattle tick), contact test; conditions: 672 h, organophosphorous-resistant Ultimo strain, evaluation 28 days later on mortality, oviposition and hatched larvae, read-out: efficacy (EC80)
Protocol: Activity In Vitro Against Engorged Female Rhipicephalus microplus (Cattle Tick)
A contact test is performed by pre-coating 6-well microplates with serial dilution of the compound to be evaluated for anti-parasitic activity. 10 engorged female ticks of the organophosphorous-resistant Ultimo strain are distributed to each well in triplicates. Plates are then incubated at 28° C. and 80% relative humidity. Evaluation takes place 28 days later based on mortality, oviposition and hatched larvae. […] Activity In Vivo Against Rhipicephalus sanguineus Nymphs on Mongolian Gerbils (Meriones unguiculatus) (Spray Application)

[3] = tested on: Ctenocephalides Felis (Cat Flea); experiment: Activity in vitro against Ctenocephalides felis (cat flea), Assay A; conditions: Ctenocephalides felis; at 100 ppm; adult fleas fed on treated blood for 24 h; dead fleas counted; read-out: efficacy (EC80)
Protocol: Activity In Vitro Against Ctenocephalides Felis (Cat Flea)—Assay A
A mixed adult population of fleas is placed in a suitably formatted 96-well plate allowing fleas to access and feed on treated blood via an artificial feeding system. Fleas are fed on treated blood for 24 h, after which the compound effect is recorded. Insecticidal activity is determined on the basis of the number of dead fleas recovered from the feeding system.

[4] = tested on: Rhipicephalus sanguineus (Dog Tick); experiment: Activity in vitro against Rhipicephalus sanguineus (dog tick), Assay A, contact test; conditions: Rhipicephalus sanguineus, 168 h, at 100 ppm, adult ticks, 28° C. and 80% relative humidity for 7 days, read-out: efficacy (EC80)
Protocol: Activity In Vitro Against Rhipicephalus sanguineus (Dog Tick)—Assay A
A contact test is performed by pre-coating microplate with serial dilution of compound allowing evaluating anti-parasitic activity by contact against ticks. A mixed adult tick population is then distributed to each well of the plate and incubated at 28° C. and 80% relative humidity for 7 days, during which the effect of the test compound is monitored. Acaricidal activity is confirmed if and when adult ticks are dead.

Lice (Polyplax serrata) = experiment: Activity in vivo against lice (Polyplax serrata) in mice (topical); conditions: pour-on application, live lice on day +4 and +14, Henderson & Tilton formula, read-out: efficacy (EC90)
Protocol: Activity In Vivo Against Lice (Polyplax serrata) in Mice (Topical) Mice naturally infected with P. serrata are treated with the formulated test compound on day 0 by pour-on application. On day +4 and +14, efficacy is evaluated by counting the number of live lice under a binocular. Efficacy at the two time points is expressed as a comparison of lice numbers counted on the same mouse before treatment, using the Henderson & Tilton formula, taking also into account lice numbers found on mice treated with the empty formulation (placebo group): [formula] n=number of lice, T=treated group, Co=control/placebo group.

SMILES | pest or weed control at 32 ppm [1] [%] | pest or weed control at 200 ppm [2] [%] | pest or weed control at 100 ppm [3] [%] | pest or weed control at 100 ppm [4] [%] | inhibition in vivo at 32 mg/kg (Lice (Polyplax serrata)) [%]
CC(c1ncnn1-c1ccccn1)N(CC1CC1)C(=O)c1cc(Cl)cc(Cl)c1 (centres unmarked) [Example 2, 3,5-Dichloro-N-(cyclopropylmethyl)-N-[1-[2-(2-pyridyl)-1,2,4-triazol-3-yl]ethyl]benzamide] | > 80 | > 80 | > 80 | > 80 | –
CCCN(C(=O)c1cc(Cl)cc(Cl)c1)C(C)c1ncnn1-c1ccccn1 (centres unmarked) [Example 3] | > 80 | > 80 | > 80 | > 80 | –
CC(c1ncnn1-c1ccccn1)N(CC1CC1)C(=O)c1cccc(OC(F)(F)F)c1 (centres unmarked) [Example 4, N-(Cyclopropylmethyl)-N-[1-[2-(2-pyridyl)-1,2,4-triazol-3-yl]ethyl]-3-(trifluoromethoxy)benzamide] | > 80 | > 80 | > 80 | > 80 | –
CC(c1ncnn1-c1ccccn1)N(Cc1cccc(Cl)c1)C(=O)c1cccc(C#N)c1 (centres unmarked) [Example 5, N-[(3-Chlorophenyl)methyl]-3-cyano-N-[1-[2-(2-pyridyl)-1,2,4-triazol-3-yl]ethyl]benzamide] | – | – | > 80 | – | –
CC(c1ncnn1-c1ccccn1)N(CC1CC1)C(=O)c1cc(Cl)cc(C(F)(F)F)c1 (centres unmarked) [Example 6, 3-Chloro-N-(cyclopropylmethyl)-N-[1-[2-(2-pyridyl)-1,2,4-triazol-3-yl]ethyl]-5-(trifluoromethyl)benzamide] | > 80 | > 80 | > 80 | > 80 | –
C#CCN(C(=O)c1cc(Cl)cc(C(F)(F)F)c1)C(C)c1ncnn1-c1ccccn1 (centres unmarked) [Example 7, 3-Chloro-N-prop-2-ynyl-N-[1-[2-(2-pyridyl)-1,2,4-triazol-3-yl]ethyl]-5-(trifluoromethyl)benzamide] | > 80 | > 80 | > 80 | – | > 90
CC(c1ncnn1-c1ccccn1)N(CC1COC1)C(=O)c1cc(C(F)(F)F)cc(C(F)(F)F)c1 (centres unmarked) [Example 13, N-(Oxetan-3-ylmethyl)-N-[1-[2-(2-pyridyl)-1,2,4-triazol-3-yl]ethyl]-3,5-bis(trifluoromethyl)benzamide] | > 80 | – | > 80 | > 80 | –
C#CCN(C(=O)c1cc(C(F)(F)F)cc(C(F)(F)F)c1)C(C)c1ncnn1-c1ccccn1 (centres unmarked) [Example 15] | > 80 | > 80 | > 80 | > 80 | > 90
CC(c1ncnn1-c1ccccn1)N(CC1CC1(Cl)Cl)C(=O)c1cc(C(F)(F)F)cc(C(F)(F)F)c1 (centres unmarked) [Example 17, N-[(2,2-Dichlorocyclopropyl)methyl]-N-[1-[2-(2-pyridyl)-1,2,4-triazol-3-yl]ethyl]-3,5-bis(trifluoromethyl)benzamide] | > 80 | > 80 | > 80 | – | > 90
CC(c1ncnn1-c1ncccn1)N(CCCF)C(=O)c1cc(C(F)(F)F)cc(C(F)(F)F)c1 (centres unmarked) [Example 21, N-(3-Fluoropropyl)-N-[1-(2-pyrimidin-2-yl-1,2,4-triazol-3-yl)ethyl]-3,5-bis(trifluoromethyl)benzamide] | > 80 | > 80 | > 80 | – | > 90
CC(c1ncnn1-c1ncccn1)N(CCF)C(=O)c1cc(Cl)cc(OC(F)(F)F)c1 (centres unmarked) [Example 22, 3-Chloro-N-(2-fluoroethyl)-N-[1-(2-pyrimidin-2-yl-1,2,4-triazol-3-yl)ethyl]-5-(trifluoromethoxy)benzamide] | > 80 | > 80 | > 80 | – | –
CC(c1ncnn1-c1ncccn1)N(CCCF)C(=O)c1cc(Cl)cc(C(F)(F)F)c1 (centres unmarked) [Example 24, 3-Chloro-N-(3-fluoropropyl)-N-[1-(2-pyrimidin-2-yl-1,2,4-triazol-3-yl)ethyl]-5-(trifluoromethyl)benzamide] | > 80 | > 80 | > 80 | > 80 | > 90
CC(c1ncnn1-c1ncccn1)N(CCCF)C(=O)c1cc(Cl)cc(OC(F)(F)F)c1 (centres unmarked) [Example 25, 3-Chloro-N-(3-fluoropropyl)-N-[1-(2-pyrimidin-2-yl-1,2,4-triazol-3-yl)ethyl]-5-(trifluoromethoxy)benzamide] | > 80 | > 80 | > 80 | – | > 90
CC(c1ncnn1-c1ncccn1)N(CCC(F)(F)F)C(=O)c1cc(Cl)cc(OC(F)(F)F)c1 (centres unmarked) [Example 27, 3-Chloro-N-[1-(2-pyrimidin-2-yl-1,2,4-triazol-3-yl)ethyl]-5-(trifluoromethoxy)-N-(3,3,3-trifluoropropyl)benzamide] | > 80 | – | > 80 | > 80 | > 90
CC(c1ncnn1-c1ncccn1)N(CCF)C(=O)c1cncc(C(F)(F)F)c1 (centres unmarked) [Example 30, N-(2-Fluoroethyl)-N-[1-(2-pyrimidin-2-yl-1,2,4-triazol-3-yl)ethyl]-5-(trifluoromethyl)pyridine-3-carboxamide] | > 80 | – | > 80 | > 80 | > 90
C#CCN(C(=O)c1cncc(C(F)(F)F)c1)C(C)c1ncnn1-c1ncccn1 (centres unmarked) [Example 32, N-Prop-2-ynyl-N-[1-(2-pyrimidin-2-yl-1,2,4-triazol-3-yl)ethyl]-5-(trifluoromethyl)pyridine-3-carboxamide] | > 80 | – | > 80 | > 80 | –
CC(c1nnnn1-c1ncccn1)N(CC1CC1)C(=O)c1cc(C(F)(F)F)cc(C(F)(F)F)c1 (centres unmarked) [Example 33, N-(Cyclopropylmethyl)-N-[1-(1-pyrimidin-2-yltetrazol-5-yl)ethyl]-3,5-bis(trifluoromethyl)benzamide] | > 80 | – | – | – | –
Cc1nc(C(C)N(CC2CC2)C(=O)c2cccc(C#N)c2)n(-c2ccccn2)n1 (centres unmarked) [Example 34, 3-Cyano-N-(cyclopropylmethyl)-N-[1-[5-methyl-2-(2-pyridyl)-1,2,4-triazol-3-yl]ethyl]benzamide] | – | – | > 80 | > 80 | –
CC(CN(CC1CC1)C(=O)c1cc(C(F)(F)F)cc(C(F)(F)F)c1)c1ncnn1-c1ccccn1 (centres unmarked) [Example 42, 3-(Cyclopropylmethyl)-N-[2-[2-(2-pyridyl)-1,2,4-triazol-3-yl]propyl]-3,5-bis(trifluoromethyl)benzamide] | > 80 | – | > 80 | > 80 | –
C#CCN(C(=O)c1cncc(C(F)(F)F)c1)[C@@H](C)c1ncnn1-c1ncccn1 [Example 43, N-Prop-2-ynyl-N-[(1S)-1-(2-pyrimidin-2-yl-1,2,4-triazol-3-yl)ethyl]-5-(trifluoromethyl)pyridine-3-carboxamide] | > 80 | – | > 80 | > 80 | –
C#CCN(C(=O)c1cc(C(F)(F)F)cc(C(F)(F)F)c1)[C@@H](C)c1ncnn1-c1ncccn1 [Example 46, N-Prop-2-ynyl-N-[(1S)-1-(2-pyrimidin-2-yl-1,2,4-triazol-3-yl)ethyl]-3,5-bis(trifluoromethyl)benzamide] | > 80 | > 80 | > 80 | – | –
CC(c1ncnn1-c1ccccn1)N(CC1CC1)C(=S)c1cccc(C#N)c1 (centres unmarked) [Example 47, 3-Cyano-N-(cyclopropylmethyl)-N-[1-[2-(2-pyridyl)-1,2,4-triazol-3-yl]ethyl]benzenecarbothioamide] | – | – | > 80 | > 80 | –

From patent publication US10287276B2, “Heteroaryl-1,2,4-triazole and heteroaryl-tetrazole compounds for controlling ectoparasites” (Elanco Tiergesundheit AG, priority 2016, dated 2019)
